Assay results taken from patent US20230066011A1, “PYRROLOPYRIMIDINE DERIVATIVE, AND PHARMACEUTICAL COMPOSITION FOR PREVENTING OR TREATING PROTEIN KINASE-RELATED DISEASE COMPRISING SAME AS ACTIVE INGREDIENT” (VORONOI CO., LTD., priority 2019, published 2023).

Key:
human GST-CLK1 = molecular target: T1, human GST-CLK1 (Homo sapiens, UniProt P49759); experiment: GST-CLK1 enzyme inhibition, ADP-Glo kinase assay; assay type: biochemical; settings: ATP 10 μM, GST-CLK1 129-end
T1 construct: purified human GST-CLK1 (129-end, SignalChem) enzyme; purchased SignalChem
Protocol: (§1) To evaluate an inhibitory activity of the compound according to the present invention against LRRK2, LRRK2 (G2019S), DYRK1, CLK1, and TTK kinases, experiments were performed as follows.
(§2) Each of the Example compounds was reacted with a purified human GST-CLK1 (129-end, SignalChem) enzyme to evaluate an ability to inhibit an enzyme using a method as described below. A composition of 40 mM Tris-HCl (pH 7.4), 20 mM MgCl2, 0.5 mg/mL BSA, and 50 μM DTT was used as a reaction buffer, and all reactions of test substances were performed in the reaction buffer. In the test, purified ATP (10 μM) and a specific substrate solution were reacted with a human GST-CLK1 (129-end, 3 ng) enzyme at 25° C. for an hour, and the enzyme activities were then determined using an in vitro ADP-Glo™ kinase assay (Promega). An enzyme-activity reaction solution, an ADP-Glo reaction solution, and an enzyme-ability detection solution were reacted at a ratio of 2:2:1 to measure a degree of inhibition of the enzyme activity with luminescence. The degree of inhibition of the enzyme activity according to the treatment concentration of each of the compounds was calculated based on the fluorescence of the enzyme activity of the solvent control which was not treated with the compound. In this case, the concentration of each of the compounds inhibiting 50% of the enzyme activity was determined to be an IC50 (nM) value. The IC50 (nM) value of each of the compounds was determined from 3 sets of data, and calculated using Prism (Version 5.01; GraphPad) software.

human GST-DYRK1A = molecular target: T2, human GST-DYRK1A (Homo sapiens, UniProt Q13627); experiment: GST-DYRK1A enzyme inhibition, ADP-Glo kinase assay; assay type: biochemical; settings: ATP 10 μM, GST-DYRK1A full length, read-out: DYRK1 IC50
T2 construct: purified human GST-DYRK1A (full length, Thermo Scientifics) enzyme; purchased Thermo Scientifics
Protocol: as §1
as §2, with “GST-DYRK1A (full length, Thermo Scientifics)” for “GST-CLK1 (129-end, SignalChem)”, “GST-DYRK1A (full length, 10” for “GST-CLK1 (129-end, 3”, “value, and the” for “value. The”

T1 sequence (P49759 129-484 limits assumed): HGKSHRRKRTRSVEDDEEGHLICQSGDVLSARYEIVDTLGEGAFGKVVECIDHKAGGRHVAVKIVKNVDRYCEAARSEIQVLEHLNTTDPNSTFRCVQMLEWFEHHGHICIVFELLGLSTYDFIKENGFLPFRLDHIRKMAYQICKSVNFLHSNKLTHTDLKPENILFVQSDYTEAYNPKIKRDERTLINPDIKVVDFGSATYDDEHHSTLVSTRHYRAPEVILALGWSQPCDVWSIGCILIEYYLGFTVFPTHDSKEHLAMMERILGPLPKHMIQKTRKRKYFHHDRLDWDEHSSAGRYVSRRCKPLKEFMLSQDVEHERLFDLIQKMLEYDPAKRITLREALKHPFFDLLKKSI

IC50 (human GST-CLK1) [nM] | IC50 (human GST-DYRK1A) [nM] | Compound
< 100 | 301 to 1000 | CC(C)CNc1nc(Nc2ccc(C(=O)N3CC(CO)(CO)C3)c3c2OCCO3)nc2[nH]cc(C#N)c12 [Example 328, 2-((8-(3,3-bis (hydroxymethyl)azetidine-1-carbonyl)-2,3-dihydrobenzo[b] [1,4]dioxin-5-yl)amino)-4-(isobutylamino)-7H-pyrrolo[2,3-d]pyrimidine-5-carbonitrile]
301 to 1000 | 301 to 1000 | CCCCNc1nc(Nc2ccc(C(=O)N3CCOCC3)c3c2OCCO3)nc2[nH]cc(C(F)(F)F)c12 [Example 208, (8-((4-(butylamino)-5-(trifluoromethyl)-7H-pyrrolo[2,3-d]pyrimidin-2-yl)amino)-2,3-dihydrobenzo[b][1,4]dioxin-5-yl)(morpholino)methanone]
301 to 1000 | 301 to 1000 | N#Cc1c[nH]c2nc(Nc3ccc(C(=O)N4CCOCC4)c4c3OCCO4)nc(NC3CCOCC3)c12 [Example 129, 2-((8-(morpholine-4-carbonyl)-2,3-dihydrobenzo[b][1,4]dioxin-5-yl)amino)-4-((tetrahydro-2H-pyran-4-yl)amino)-7H-pyrrolo[2,3-d]pyrimidine-5-carbonitrile]
< 100 | 101 to 300 | CCNc1nc(Nc2ccc(C(=O)N3CCC(N4CCOCC4)CC3)c3c2OCO3)nc2[nH]cc(C#N)c12 [Example 264, 4-(ethyalmino)-2-((7-(4-morpholino-1-carbonyl)benzo[d][1,3]dioxol-4-yl)amino)-7H-pyrrolo[2,3-d]pyrimidine-5-carbonitrile]
< 100 | 301 to 1000 | CC(C)Nc1nc(Nc2ccc(C(=O)N3CC(CO)(CO)C3)c3c2OCCO3)nc2[nH]cc(C#N)c12 [Example 329, 2-((8-(3,3-bis (hydroxymethyl)azetidine-1-carbonyl)-2,3-dihydrobenzo[b] [1,4]dioxin-5-yl)amino)-4-(isopropylamino)-7H-pyrrolo[2,3-d]pyrimidine-5-carbonitrile]
< 100 | 101 to 300 | CCNc1nc(Nc2ccc(C(=O)N3CCN(C4COC4)CC3)c3c2OCCO3)nc2[nH]cc(C#N)c12 [Example 281, 4-(ethylamino)-2-((8-(4-(oxetan-3-yl)piperazine-1-carobnyl)-2,3-dihydrobenzo[b][1,4]dioxin-5-yl)amino)-7H-pyrrolo[2,3-d]pyrimidine-5-carbonitrile]
< 100 | 101 to 300 | CCNc1nc(Nc2ccc(C(=O)N3CCOCC3)c3c2OCC3)nc2[nH]cc(C#N)c12 [Example 346, 4-(ethylamino)-2-((4-(morpholine-4-carbonyl)-2,3-dihydrobenzo-furan-7-yl)amino)-7H-pyrrolo[2,3-d]pyrimidine-5-carbonitrile]
< 100 | 301 to 1000 | CC(C)CNc1nc(Nc2ccc(C(=O)N3CCC(N4CCOCC4)CC3)c3c2OCCO3)nc2[nH]cc(C#N)c12 [Example 139, 4-(isobutylamino)-2-((8-(4-morpholinopiperidine-1-carbonyl)-2,3-dihydrobenzo[b][1,4]dioxin-5-yl)amino)-7H-pyrrolo[2,3-d]pyrimidine-5-carbonitrile]

Second part, the compound before the results:

Compound | IC50 (human GST-CLK1) [nM] | IC50 (human GST-DYRK1A) [nM]
COc1cc(P(C)(C)=O)ccc1Nc1nc(NCC(C)C)c2c(C(F)(F)F)c[nH]c2n1 [Example 370, (4-((4-(isobutylamino)-5-(trifluoromethyl)-7H-pyrrolo[2,3-d]pyrimidin-2-yl)amino)-3-methoxyphenyl) dimethyl-phosphine oxide] | < 100 | 301 to 1000
COc1cc(P2(=O)CCN(C3COC3)CC2)ccc1Nc1nc(NC2CCCCC2)c2cc[nH]c2n1 [Example 240, 4-(4-((4-(cyclohexylamino)-7H-pyrrolo[2,3-d]pyrimidin-2-yl)amino)-3-methoxyphenyl)-1-(oxetan-3-yl)-1,4-azaphosphinane 4-oxide] | 301 to 1000 | 301 to 1000
CC[C@@H](C)Nc1nc(Nc2ccc(S(C)(=O)=O)cc2OC)nc2[nH]ccc12 [Example 16, (R)-N^4-(sec-butyl)-N^2-(2-methoxy-4-(4-methylsulfonyl)phenyl)-7H-pyrrolo[2,3-d]pyrimidine-2,4-diamine] | 301 to 1000 | 301 to 1000
CC(C)Nc1nc(Nc2ccc(C(=O)N3CCC(N4CCOCC4)CC3)c3c2OCCO3)nc2[nH]cc(C(F)(F)F)c12 [Example 365, (8-((4-(isopropylamino)-5-(trifluoromethyl)-7H-pyrrolo[2,3-d]pyrimidin-2-yl)amino)-2,3-dihydrobenzo[b] [1,4]dioxin-5-yl) (4-morpholino-piperidin-1-yl)methanone] | < 100 | < 100
COc1cc(P(C)(C)=O)ccc1Nc1nc(NC2CC2)c2c(C#N)c[nH]c2n1 [Example 116, 4-(cyclopropylamino)-2-((4-(dimethylphosphoryl)-2-methoxyphenyl)amino)-7H-pyrrolo[2,3-d]pyrimidine-5-carbonitrile] | < 100 | 301 to 1000
CC[C@@H](C)Nc1nc(Nc2ccc(S(C)(=O)=O)cc2OC)nc2[nH]cc(C#N)c12 [Example 262, (R)-4-(sec-butylamino)-2-((2-methoxy-4-(methylsulfonyl)phenyl)amino)-7H-pyrrolo[2,3-d]pyrimidine-5-carbonitrile] | 301 to 1000 | 301 to 1000
COc1cc(P2(=O)CCN(C3COC3)CC2)ccc1Nc1nc(NC2COC2)c2c(C#N)c[nH]c2n1 [Example 311, 2-((2-methoxy-4-(1-(oxetan-3-yl)-4-oxido-1,4-azaphosphinan-4-yl)phenyl)amino)-4-(oxetan-3-ylamino)-7H-pyrrolo[2,3-d]pyrimidine-5-carbonitrile] | 301 to 1000 | 301 to 1000
CC[C@H](C)Nc1nc(Nc2ccc(S(C)(=O)=O)cc2OC)nc2[nH]cc(C(F)(F)F)c12 [Example 380, (S)-N^4-(sec-butyl)-N^2-(2-methoxy-4-(methylsulfonyl)phenyl)-5-(trifluoromethyl)-7H-pyrrolo[2,3-d]pyrimidine-2,4-diamine] | 301 to 1000 | 301 to 1000
COc1cc(P2(=O)CCN(C3CC3)CC2)ccc1Nc1nc(NC(C)C)c2c(C#N)c[nH]c2n1 [Example 292, 2-((4-(1-cyclopropyl-4-oxido-1,4-azaphosphinan-4-yl)-2-methoxyphenyl)a-mino)-4-(isopropylamino)-7H-pyrrolo[2,3-d]pyrimidine-5-carbonitrile] | < 100 | 301 to 1000
COc1cc(P2(=O)CCN(C3CC3)CC2)ccc1Nc1nc(NC2CC2)c2c(C#N)c[nH]c2n1 [Example 285, 2-((4-(1-cyclopropyl-4-oxido-1,4-azaphosphinan-4-yl)-2-methoxyphenyl)a-mino)-4-(cyclo-propylamino)-7H-pyrrolo[2,3-d]pyrimidine-5-carbonitrile] | 101 to 300 | 301 to 1000
N#Cc1c[nH]c2nc(Nc3ccc(C(=O)N4CCC(N5CCOCC5)CC4)c4c3OCCO4)nc(NC3CCCCC3)c12 [Example 142, 4-(cyclohexylamino)-2-((8-(4-morpholinopiperidine-1-carbonyl)-2,3-dihydrobenzo[b][1,4]dioxin-5-yl)amino)-7H-pyrrolo[2,3-d]pyrimidine-5-carbonitrile] | < 100 | 301 to 1000
COc1cc(P2(=O)CCN(C3CC3)CC2)ccc1Nc1nc(NC2CCCCC2)c2c(C#N)c[nH]c2n1 [Example 323, 4-(cyclo-hexylamino)-2-((4-(1-cyclopropyl-4-oxido-1,4-azaphosphinan-4-yl)-2-methoxyphenyl)a-mino)-7H-pyrrolo[2,3-d]pyrimidine-5-carbonitrile] | 301 to 1000 | 101 to 300
COc1cc(S(C)(=O)=O)ccc1Nc1nc(NCC2CCCC2)c2c(C(F)(F)F)c[nH]c2n1 [Example 206, N^4-(cyclopentylmethyl)-N^2-(2-methoxy-4-(methylsulfonyl)phenyl)-5-(trifluoromethyl)-7H-pyrrolo[2,3-d]pyrimidine-2,4-diamine] | 301 to 1000 | 301 to 1000
